Literature values in patent US11273125B2, “Preparation of desiccated liposomes for use in compressible delivery systems” (SMARTEK INTERNATIONAL LLC, priority 2017, dated 2022).

Details: poor bioavailability of the unformulated compound; route and species not given

## COc1ccc2c(=O)cc(-c3ccccc3)oc2c1 [7-methoxyflavone]
  bioavailability: approximately 5%
